Like-named read-outs stand apart in the source and are kept apart here.

Data set [1] concerns porcine sclera. Kind of data set: Thermal shrinkage temperature analysis of porcine scleral strips. The text has this: Thermal shrinkage temperature or denaturation temperature (Ts) is a technique that has been used for decades in studying collagen cross-linking. As collagen fibers are progressively heated, a threshold temperature is reached at which point disruption of hydrogen bonding in the collagen molecule triple helix occurs, resulting in unwinding of the triple helices. The denaturation of tertiary protein structure results in a rapid shrinkage of the tissue of up to 80%. This phenomenon can be expressed in various ways including temperature of onset of tissue shrinkage, temperature at maximal tissue shrinkage, and temperature at 50% of maximal tissue shrinkage, for example. In addition, differential scanning calorimetry (DSC) is related to thermal shrinkage temperature analysis and is widely used to evaluate biomaterial cross-linking. Thermal shrinkage temperature is essentially a simplified version of DSC and can be used effectively to screen the cross-linking efficacy of compounds. For the purposes of this study, the onset of shrinkage is considered the Ts and the temperature at which 50% of maximal shrinkage has occurred is T50. Graphs depicting the relationship between degree of shrinkage and temperature indicate differences in degree of cross-linking between groups. Thus, stabilization of collagen fiber structures through non-enzymatic cross-linking increases Ts and T50.
This system can perform multiple Ts assays in succession, allowing rapid screening of a number of potential cross-linking agents and conditions. […] Inlet and outlet fittings allow for constant circulation of heated water which is modulated by a digitally controlled water bath equipped with a water pump. The entire box is placed on a digital photo scanner connected to a Windows based computer. Beginning at 50° C. the temperature is raised at a rate of 1° C./min and serial scans are taken at every degree increase in temperature up to 80° C. […] As the tissue shrinks, the images are captured by the scanner. The image files are later analyzed for 2-dimensional area using NIH Image J software and % shrinkage calculations are made using Microsoft Excel for graphing purposes. This method obviates the need for removal of tissue pieces from the water bath with manual micrometer measurements as described by the UVR group (Spoerl, E., et al., 2004).
Using this simple, reproducible assay enables the screening of a number of compounds for cross-linking efficacy. This is first performed using porcine eyes because of their low cost. Follow up studies can be performed using human eyes. Porcine eyes are obtained within 6 hrs of sacrifice (Hatfield Meat Packing, Inc., Hatfield Pa.). Eyes showing clear corneas and intact epithelia are chosen for study. […] Each strip is then cross-linked using a nitro agent. […] Opthalmol. 1999; 117:166-169) for 24-96 hrs. Following incubation, the samples are evaluated for degree of cross-linking using the Ts assay as described above.
From the data, Ts curves are generated for each compound and condition studied. Each data point is the average of 3 independent samples.

The next data set deals with ARPE-19 cells. The source says:
A cytotoxicity study was undertaken to obtain an impression of the level of cellular tolerance to these compounds. For pilot experiments ARPE-19 cells were used. This is an immortal human retinal pigment epithelial cell line commonly used for experiments related to macular degeneration. In these pilot studies, the ARPE-19 cells serve as a surrogate for cytotoxicity experiments. Primary cultures of bovine corneal endothelial cells were also used in the cytotoxicity studies described. Bovine corneal cells have more direct relevance for evaluating potential cytotoxic effects during cross-linking of living eye tissue.
ARPE-19 cells were grown to 80% confluence in 96 well tissue culture plates. The cells were then exposed to varying concentrations of NaNO2 and 2-nitroethanol in their culture medium and evaluated for cell death using trypan blue (TB) staining (0.4% for 5 min) after 24 hrs.

In data set [2] the test system is porcine cornea. Briefly: Gross stiffness of porcine corneal strips handled with a forceps. The conditions noted are these: 100 mM, pH 7.4, 37° C., 48 hrs. The method, then:
Fresh porcine corneal strips and corneoscleral complexes obtained within 6 hrs of sacrifice and incubated at 37° C. in buffered solutions (pH 7.4) containing 20% Dextran (T500) and either 100 mM NaNO2 or 100 mM of one each of the specified β-nitro alcohols
These images were taken from tissues cross-linked with nitrite and the β-nitro alcohols 2-nitroethanol, 2-nitro-1-propanol, and […], for 48 hrs. […] Fresh porcine corneal strips and corneoscleral complexes were obtained within 6 hrs of sacrifice and incubated at 37° C. in buffered solutions (pH 7.4) containing 20% Dextran (T500) and either 100 mM NaNO2 or 100 mM of one each of the β-nitro alcohols. After 48 hrs, the following images were obtained. […] FIGS. 13 (B and D)

The test system of data set [3] is porcine cornea. The conditions noted are these: 200 mM, pH 5.0, 37° C.
Procedure: (§1) Adult porcine eyes were obtained within 12 hours of sacrifice and submerged in a solution of either 200 mM NaNO2 or 200 mM NaCl buffered with 200 mM NaH2PO4/Na2HPO4 (pH 5.0). Penicillin/Streptomycin was added (10 μl/ml) to prevent bacterial overgrowth. After 30 hours of incubation at 37° C., the corneas were excised at the limbus and photographed.
After 30 and 80 hours of incubation at 37° C., the corneas were excised at the limbus and subjected to shrinkage temperature (thermal denaturation) analysis. The intact cornea was heated in 2° C. increments every 5 minutes using a digitally controlled water bath. The maximal dimensions in the long and short axis were measured using a micrometer under visualization with an operating microscope. The percentage of tissue shrinkage was then estimated by using 2 dimensional area calculations from the micrometer readings.
The conditions of data set [4]: 4° C.
Procedure: Adult porcine eyes were obtained within 12 hours of. sacrifice and submerged in solutions of 0, 10, 100 mM NaNO2 and 100 mM NaCl buffered with 50 mM NaH2PO4/Na2HPO4 (pH 7.4) following bubbling with 99% Argon/1% O2 in order to limit the amount of potential nitrite auto-oxidation caused by oxygen. Penicillin/Streptomycin was added (10 μl/ml) to prevent bacterial overgrowth. After 24 hours of incubation at 4° C., the aqueous humor was sampled for nitrite concentration using a modification of the Greiss colorimetric assay.
Adult porcine eyes were obtained within 12 hrs of sacrifice and submerged in solutions of 0, 10, 100 mM NaNO2 and 100 mM NaCl buffered with 50 mM NaH2PO4/Na2HPO4 (pH 7.4) following bubbling with 100% Argon in order to limit the amount of potential nitrite auto-oxidation caused by oxygen. Penicillin/Streptomycin was added (10 ul/ml) to prevent bacterial overgrowth. After 24 hrs of incubation at 4° C., the aqueous humor was sampled for nitrite concentration using a modification of the Greiss colorimetric assay.
The next data set deals with type I collagen (Bos taurus, UniProt P02453+P02465). As to conditions: 7 day incubation, pH 7.4, 4° C.
For data set [5], the system named is fibroblast-populated collagen gels. As to conditions: 100 mM; pretreatment pH 4.0 24 hours and posttreatment pH 7.4 seven days.
Procedure: Biaxial mechanical properties of the collagen gels were examined by performing equibiaxial load controlled experiments after 72 hours of culture for pretreated and 10 days of culture for posttreated collagen gels. To perform the planar biaxial mechanical test, the loading frame was first removed and the gels were floated to the top of their Petri dish using standard media (DMEM with 10% FBS and antibiotics) at 37° C. Gels were loaded by applying equal weights on all sides of the gel simultaneously (equibiaxial loading). First, gels were preconditioned by cyclically applying and removing 1 gram weights on all sides. […] One prominent feature of the preconditioning response in these gels is that the gels undergo some permanent deformation, not relaxing back to their initial dimensions even when fully unloaded.
The magnitude of the permanent deformation associated with preconditioning was quantified by computing the associated strain (E^P11, E^P22) using the unloaded configuration of the gel at the beginning of the mechanical test as the reference state and the new, stable unloaded state achieved at the end of preconditioning as the deformed state. After preconditioning, calibrated weights from 0 to 1000 mg are applied equibiaxially in 100 mg increments. Images of the gel surface are taken 30 seconds after each load application or removal, and the strains associated with each load were computed relative to the preconditioned unloaded reference state at the beginning of the loading run.
The impact of sodium nitrite on vertical deformation of uniaxially constrained gels was measured during each phase of the experiment.
Initially square fibroblast-populated collagen gels were cast and allowed to polymerize for 2 hrs. Markers were painted on the gel surface to allow tracking of deformation in the central region during the remainder of the experiment. […] At 72 hrs, the gel was mechanically tested. […] Then, the gel was loaded in a series of smaller steps and the response quantified (loading phase).
Data set [6] relates to porcine cornea. The conditions noted are these: 200 mM, pH 5.0, 37° C., 30 hours.
Procedure: as §1
Data set [7] has as its system porcine sclera. As to conditions: 200 mM, pH 5.0, 37° C., 30 hours.
Procedure: as §1
For another data set, the system named is corneal endothelial cell. As to conditions: 3 hrs exposure, rabbit organ culture, electron microscopy, Green 1977; cited from earlier work.
The nature of another data set: Solubility in water. Format: physicochemical.
Where [8] appears, read: NaNO2 100 mM pH 3 with 1 mM urea.
[9] abbreviates: NaNO2 100 mM pH 3 with 10 mM urea.
Setting [10] is: NaNO2 100 mM pH 3 with 100 mM urea.
Where [11] appears, read: 100 mM, 1% DMSO, pH 7.4, 96 hrs.

type I collagen, sequence (P02453 162-1217 limits assumed): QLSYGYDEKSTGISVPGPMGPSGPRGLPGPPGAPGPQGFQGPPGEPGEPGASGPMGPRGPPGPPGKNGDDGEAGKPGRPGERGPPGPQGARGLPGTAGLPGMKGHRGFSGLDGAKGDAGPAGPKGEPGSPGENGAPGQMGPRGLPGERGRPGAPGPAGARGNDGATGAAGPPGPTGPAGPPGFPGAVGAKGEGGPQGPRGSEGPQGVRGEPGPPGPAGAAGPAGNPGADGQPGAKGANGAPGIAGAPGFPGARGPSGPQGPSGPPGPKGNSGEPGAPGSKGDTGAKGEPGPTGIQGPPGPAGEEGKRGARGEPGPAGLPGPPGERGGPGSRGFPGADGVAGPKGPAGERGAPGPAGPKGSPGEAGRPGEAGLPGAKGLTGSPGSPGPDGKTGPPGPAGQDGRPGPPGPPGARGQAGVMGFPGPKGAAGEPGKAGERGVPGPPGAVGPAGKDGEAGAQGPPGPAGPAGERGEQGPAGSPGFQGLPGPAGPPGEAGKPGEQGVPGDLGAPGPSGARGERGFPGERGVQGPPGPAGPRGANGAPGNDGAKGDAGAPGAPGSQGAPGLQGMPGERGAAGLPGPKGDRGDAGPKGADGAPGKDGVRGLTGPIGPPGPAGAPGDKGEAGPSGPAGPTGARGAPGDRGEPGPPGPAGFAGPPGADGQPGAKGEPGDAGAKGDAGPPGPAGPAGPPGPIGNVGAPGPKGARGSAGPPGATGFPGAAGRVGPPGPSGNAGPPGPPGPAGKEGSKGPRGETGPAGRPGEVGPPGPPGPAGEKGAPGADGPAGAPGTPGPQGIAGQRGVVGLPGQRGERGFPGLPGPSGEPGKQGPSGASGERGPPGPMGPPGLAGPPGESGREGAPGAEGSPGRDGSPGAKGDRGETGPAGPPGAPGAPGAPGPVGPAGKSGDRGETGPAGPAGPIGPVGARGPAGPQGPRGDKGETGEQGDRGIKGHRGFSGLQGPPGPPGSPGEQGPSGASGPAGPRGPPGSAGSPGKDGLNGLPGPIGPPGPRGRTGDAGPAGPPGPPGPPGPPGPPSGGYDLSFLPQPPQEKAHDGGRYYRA
type I collagen, sequence (P02465 80-1117 limits assumed): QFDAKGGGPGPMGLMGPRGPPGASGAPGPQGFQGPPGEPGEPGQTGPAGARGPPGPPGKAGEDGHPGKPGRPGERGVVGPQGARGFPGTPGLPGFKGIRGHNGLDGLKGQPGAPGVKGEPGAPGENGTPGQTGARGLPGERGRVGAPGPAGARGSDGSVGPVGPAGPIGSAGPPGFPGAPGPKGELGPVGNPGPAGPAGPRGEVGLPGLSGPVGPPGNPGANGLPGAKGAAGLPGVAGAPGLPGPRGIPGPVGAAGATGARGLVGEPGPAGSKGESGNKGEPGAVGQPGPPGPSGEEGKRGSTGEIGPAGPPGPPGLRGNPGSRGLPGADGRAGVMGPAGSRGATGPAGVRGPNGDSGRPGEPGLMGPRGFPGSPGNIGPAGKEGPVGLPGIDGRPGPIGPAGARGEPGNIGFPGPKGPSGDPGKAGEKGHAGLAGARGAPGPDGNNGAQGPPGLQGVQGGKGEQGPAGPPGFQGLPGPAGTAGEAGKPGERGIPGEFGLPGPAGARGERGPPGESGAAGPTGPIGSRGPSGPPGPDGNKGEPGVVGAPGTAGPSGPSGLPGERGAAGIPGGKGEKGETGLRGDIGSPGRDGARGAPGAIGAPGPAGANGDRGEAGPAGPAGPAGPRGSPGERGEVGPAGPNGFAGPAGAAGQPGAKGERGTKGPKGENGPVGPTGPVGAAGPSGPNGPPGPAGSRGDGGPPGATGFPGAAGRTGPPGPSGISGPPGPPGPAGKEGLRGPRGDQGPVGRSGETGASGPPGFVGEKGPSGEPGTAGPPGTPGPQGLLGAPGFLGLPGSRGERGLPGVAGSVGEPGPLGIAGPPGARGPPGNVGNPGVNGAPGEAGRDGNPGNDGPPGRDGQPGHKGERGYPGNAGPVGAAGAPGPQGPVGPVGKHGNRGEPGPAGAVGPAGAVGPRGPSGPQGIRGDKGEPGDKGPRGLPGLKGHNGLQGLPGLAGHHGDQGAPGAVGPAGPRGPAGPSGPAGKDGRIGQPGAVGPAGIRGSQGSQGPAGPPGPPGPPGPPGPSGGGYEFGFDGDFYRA
Procedure for type I collagen: Samples of pepsin-solubilized, bovine skin collagen type I (Purecol, 3 mg/ml, Inamed Corporation, Fremont, Calif., USA) dissolved in 0.012N HCl were spiked with dH2O containing 1M NaNO2 or NaCl concentration to obtain final concentrations of 0 mM, 10 mM, 100 mM NaNO2, and 100 mM NaCl. […] These conditions were identical to those used in the preincubation treatment of collagen for biomechanical testing. Following a 24 hour incubation (4° C.), an aliquot from each sample was added into SDS-PAGE sample buffer (Biorad) in a ratio of 1:2 (sample:sample buffer), reduced by heating at 100° C. for 5 minutes with dithiothreitol (DTT), and analyzed by SDS-PAGE. The separating gel was 5% acrylamide and stacking gel 4%. Equivalent quantities of protein (6 μg per lane) were loaded onto separate wells. The samples were run at 25 volts for approximately 3.5 hours, which was the time necessary for the dye front to leave the bottom of the gel. The gels were then stained with Coomasie blue solution for no less than 3 hours. Following destaining, the gels were digitally photographed for densitometric analysis, which was carried out using the Un-Scan-it software program version 4.1 (Silk Scientific Corp). […]

Regarding `O=N[O-].[Na+]` [NaNO2, sodium nitrite], the “blocking of the cross-linking effect by equimolar urea” value in the data set on porcine sclera [1] is given as “unable to block”. The T50 with porcine sclera [1] (100 mM, pH 3, 96 hrs) is 69.3 °C; in the data set with porcine sclera [1] (100 mM, pH 5, 96 hrs), 67.3 °C; in the data set on porcine sclera [1] (setting [8]) it was 70.1 °C; in the data set on porcine sclera [1] (setting [9]), 69.7 °C; in the data set on porcine sclera [1] (setting [10]), 65.6 °C. Also, the “T50 Δ” value worked out at 4.0 °C in the data set on porcine sclera [1] (100 mM, pH 3, 96 hrs); 2.0 °C in the data set with porcine sclera [1] (100 mM, pH 5, 96 hrs); 4.8 °C in the data set on porcine sclera [1] (setting [8]); 4.4 °C in the data set with porcine sclera [1] (setting [9]); 0.3 °C in the data set on porcine sclera [1] (setting [10]). Moreover, the “shifts in Ts (in words)” value in the data set with porcine sclera [1] (pH 3) was “approximately equal shifts in Ts”. Besides, the “T50 (temperature at 50% of maximal shrinkage)” value in the data set on porcine sclera [1] (pH 7.4) was 65.7 °C. In addition, the “T50 Δ (change in 50% shrinkage temperature compared to control)” value in the data set with porcine sclera [1] (pH 7.4) is 0.4 °C. Moreover, the “effect on Ts (in words)” value in the data set with porcine sclera [1] (pH 7.4) was “no effect”. Besides, in the data set on ARPE-19 cells, the “tolerable level relative to genipin” value was “at least 100 ×”. For the same compound, in the data set with ARPE-19 cells (100 mM, 24 hrs), the “tolerance by cells (trypan blue)” value is “tolerated by cells”. The same compound registered a highest tolerated level in the data set with ARPE-19 cells (ARPE-19) of 100 mM. Also, the “stiffness change when handled with a forceps” value with porcine cornea [2] is “intermediate effect”. The “increase of onset of tissue shrinkage” value in the data set with porcine cornea [3] (30 hours of treatment) was “approximately 4 °C”; with porcine cornea [3] (80 hours of treatment), roughly 8 °C. Besides, the “Nitrite concentration in the aqueous humor, of the incubation fluid” value in [4] (10 mM NaNO2, pH 7.4, 24 hours) is recorded as 35.5%; in data set [4] (100 mM NaNO2, pH 7.4, 24 hours), 62.8%. Also, the “collagen cross-linking by SDS-PAGE” value on type I collagen (10 mM) is on record as “No differences are observed”; on type I collagen (100 mM), “cross-linking of collagen primary strands is indicated”. Also, the “vertical deformation associated with preconditioning” value in data set [5] is given as “reduced vertical deformation associated with preconditioning”. In addition, the “vertical deformation at 1 g equibiaxial load” value in data set [5] is “reduced vertical deformation at 1 g equibiaxial load”. Further, the vertical remodeling result in [5] is on record as “reduced vertical remodeling”. In the data set with porcine cornea [6], the “contour changes in the corneas” value was “Dramatic contour changes”. The “contour changes in sclera samples” value in the data set with porcine sclera [7] is reported as “dramatic contour changes”.
Take Benzalkonium chloride: in the data set with corneal endothelial cell, the Toxic concentration result is given as “(0.0001%)”.
For the compound `CC(C)CCON=O` [Isopentyl nitrite, isopentyl nitrite, reference compound], in the data set on porcine sclera [1] (setting [11]), the T50 amounted to 65.4 °C and the “T50 Δ” value came to 0.1 °C. For the same compound, the “shift in Ts (in words)” value with porcine sclera [1] (neutral pH, up to 100 mM) is reported as “did not result in a shift in Ts”. The solubility in water result in the data set “Solubility in water” is “poor solubility in water”.
